Assay results taken from patent publication US7393869B2, “Methods of using thiazolidine derivatives to treat cancer or inflammation” (QLT Inc., priority 2002, dated 2008).

Tests used:
[1] = biological target: T1, PTPN12 (Homo sapiens, UniProt Q05209); test: In vitro phosphatase assay (malachite green, phosphate release from ppC SRC 60 peptide); format: biochemical; conditions: read-out: Inhibition of PTPN12 IC50
T1 construct: The truncated version was used as it was far easier to handle and gave parallel results to the full length protein; made in house; host or cells: bacterial strain ER2566
T1 sequence (Q05209 28-293 limits assumed): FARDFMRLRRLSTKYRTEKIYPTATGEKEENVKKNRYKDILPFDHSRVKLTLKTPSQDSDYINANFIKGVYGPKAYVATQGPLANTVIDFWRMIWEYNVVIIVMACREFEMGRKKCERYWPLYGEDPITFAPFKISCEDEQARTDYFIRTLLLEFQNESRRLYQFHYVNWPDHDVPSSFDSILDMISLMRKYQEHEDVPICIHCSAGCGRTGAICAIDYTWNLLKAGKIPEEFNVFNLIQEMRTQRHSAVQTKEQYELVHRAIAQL
From the text: Expression of human truncated PTPN12 (PTP-PEST-N) as a fusion protein required that the cDNA be ligated into the polyclonal site situated in frame and upstream of the intein gene of the IMPACT™ expression vector pTWIN-II. The truncated version was used as it was far easier to handle and gave parallel results to the full length protein in comparison testing. For the purpose of simplicity, PTP-PEST-N will be used interchangeably with PTPN12 in these Examples.
Active PTPN12 enzyme is expressed from the IMPACT™ vector system in the bacterial strain ER2566. Recombinant PTPN12 protein is purified from bacterial cells using affinity chromatography on chitin-agarose beads followed by a chemical process whereby PTPN12 is released from its affinity tag. A complete quantitative and qualitative analysis of the protein is monitored using Coomassie-Blue staining of SDS-PAGE separated preparations and by PTPN12-specific western blotting. […]
(§1) The enzyme (phosphatase) activity was determined in a reaction that measured phosphate relase from tyrosine phospho-specific peptides using a method first described by Harder et al., Biochem. J. (1994), Vol. 298, pp. 395-401. […]
(§2) The assay plate was incubated at room temperature (21° C.) for 15 minutes. […] The plate was “read” on Bio-tek Instruments EL312e microplate Bio-Kinetics™ Reader at 590 nm and the data collected as per instrument manual.

[2] = test system: H460 Cells; test: Cell proliferation (3H-thymidine incorporation); format: cell-based; conditions: Homo sapiens, NCI-H460
From the text: (§3) This procedure (Jelinkova, R. B. et al., “Antiproliferative effect of a lectin- and anti-Thy-1.2 antibody-targeted HPMA copolymer-bound doxorubicin on primary and metastatic human colorectal carcinoma and on human colorectal carcinoma transfected with the mouse Thy-1.2 gene”, Bioconjug. Chem. (2000, September-October), Vol. 11, No. 5, pp. 664-73) is used to assess the effect compounds have on various cell lines with respect to proliferation. The rate of anchorage-independent growth of various tumor cells is quantified by measuring the amount of free isotopic thymidine that has been incorporated into the cells over a period of time. The effect of any compound to inhibit the proliferation of various tumor cells could be used as an indication of its ability to prevent disease progression in cancer.
(§4) Cultured tumour cells are harvested cells as per normal procedures: i.e. trypsinize, centrifuge and count cells. A volume of 90 μL is used to seed 5,000 cells/well in a 96 well plate. Cells are incubated for 24 hours at 37° C. under 5% CO2. After incubation, cells should be 80-90% confluent.
(§5) ^3H-thymidine (Amersham) is diluted in cell culture media to a concentration of 100 μCi/mL. The test compound is diluted in the thymidine broth to 10× the final desired concentration.
(§6) Then 10 μL of diluted compound is added to the 90 μL of cells already present in the 96-well plates. Six replicates wells are done per treatment in columns 2 to 11. Plates were mixed by rocking.
(§7) A known cytotoxic compound such as staurosporine is used in relatively high concentrations as a positive control in column 1. Diluted DMSO is used as a negative control in column 12. The plate is incubated for exactly 24 hours at 37° C.
(§8) After incubation, plates are observed under the microscope for obvious cell death, abnormal cell shape, crystal formation of the compound, etc. Then 25 μL volume of cold 50% TCA is added slowly to the 100 μL volume already in each well, and incubated for 1-2 hours at 4° C. The plates are then washed 5× in tap water and allowed to dry completely (usually overnight) at ambient temperature. Finally, 100 μL of scintillation fluid is added to each well and the plates are counted in a Wallac 1450 Microbeta™ counter according to user manual instructions.
(§9) The amount of inhibition is determined by the following formula: % inhibition=100−[(AVG treatment−AVG positive control)/[…]]

[3] = test system: PC3 Cells; test: Cell proliferation (3H-thymidine incorporation); format: cell-based; conditions: Homo sapiens, PC-3
From the text: as §3, §4, §5, §6, §7, §8, §9

[4] = biological target: T2, PTPN2 (Homo sapiens, UniProt P17706); test: In vitro phosphatase assay (malachite green, phosphate release from ppC SRC 60 peptide); format: biochemical; conditions: read-out: Inhibition of PTPN2 IC50
T2 construct: made in house; host or cells: bacterial expression system (IMPACT, New England BioLabs)
T2 sequence (P17706 1-415): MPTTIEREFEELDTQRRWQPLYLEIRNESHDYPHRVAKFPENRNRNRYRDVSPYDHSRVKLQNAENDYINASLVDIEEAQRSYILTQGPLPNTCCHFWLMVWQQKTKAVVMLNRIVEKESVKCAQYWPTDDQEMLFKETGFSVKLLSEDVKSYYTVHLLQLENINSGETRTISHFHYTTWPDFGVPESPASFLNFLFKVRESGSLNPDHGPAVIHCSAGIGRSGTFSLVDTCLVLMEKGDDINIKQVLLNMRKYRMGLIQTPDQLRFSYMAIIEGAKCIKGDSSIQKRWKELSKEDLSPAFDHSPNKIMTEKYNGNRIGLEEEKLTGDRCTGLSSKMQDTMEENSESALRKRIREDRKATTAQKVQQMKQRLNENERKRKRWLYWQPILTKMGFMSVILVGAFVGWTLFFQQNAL
From the text: PTPN2 was cloned from a human placental cDNA library in the IMPACT™ (New England BioLabs) bacterial expression system. The technology was first described by Chong et al., Gene (1997), Vol. 192, pp. 271-281. The IMPACT™ Protein Purification System was purchased commercially from New England BioLabs. The resulting product was used in the development of a protein phosphatase assay for high-throughput screening (HTS) of target molecules and in other assays described herein (see Example 2).
This activity was considered to be in the high range as compared to other recombinant protein tyrosine phosphatases assayed. […]
as §1, §2
(§10) The blank and negative controls were read, and blanks were subtracted from the average of negative control values and sample values, and the % inhibition was expressed by the following formula: % Inhibition=100−[corrected sample reading/corrected Negative Control reading*100].

[5] = biological target: T3, PTPN1 (Homo sapiens, UniProt P18031); test: as above; format: biochemical; conditions: read-out: Inhibition of PTPN1 IC50
T3 sequence (P18031 1-435): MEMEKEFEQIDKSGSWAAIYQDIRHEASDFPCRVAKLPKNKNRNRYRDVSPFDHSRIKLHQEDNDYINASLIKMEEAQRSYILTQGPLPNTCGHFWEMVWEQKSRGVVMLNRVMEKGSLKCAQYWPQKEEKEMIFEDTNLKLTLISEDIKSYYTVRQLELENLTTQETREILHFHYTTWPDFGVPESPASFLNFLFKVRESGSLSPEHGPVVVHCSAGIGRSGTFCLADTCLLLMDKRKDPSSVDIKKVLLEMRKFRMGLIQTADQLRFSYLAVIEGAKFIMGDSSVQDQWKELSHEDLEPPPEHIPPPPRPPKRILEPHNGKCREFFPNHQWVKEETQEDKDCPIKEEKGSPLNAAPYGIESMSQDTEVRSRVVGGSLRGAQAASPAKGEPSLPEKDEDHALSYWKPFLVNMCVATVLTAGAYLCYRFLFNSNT
Procedure: Compounds of formula (I) and formula (Ia) were tested in the following assay for their ability to inhibit the activity of the desired phosphatase.
The enzyme (phosphatase) activity was determined in a reaction that measured phosphate relase from tyrosine phospho-specific peptides using a method first described by Harder et al., Biochem. J. (1994), Vol. 298, pp. 395-401. This is a non-radioactive method for measuring free phosphate by the malachite green method first described by Van Veldhoven and Mannaerts, Anal Biochem. (1987), Vol. 161, pp. 45-48. 10× assay buffer (250 mM Tris:100 mM, β-mercaptoethanol, 50 mM EDTA; pH 7.2) was diluted to 5× concentration (conc.) with distilled H2O (dH2O). Then 71.4 μM of substrate working stock solution was prepared in dH2O. […]
as §2, §10

[6] = test system: prostate cancer cell line PC3; test: Cell migration in a Boyden chamber; format: cell-based; conditions: cell line not given
From the text: A range of cell lines are used in this assay, particularly the prostate cancer cell line PC3 and PTPN12 mouse embryonic fibroblasts (MEFs). The role of PTPN12 in migration was established based on the observations of PTPN12 negative MEFs. Cell adhesion and migration are dynamic biological activities involving the assembly and disassembly of a large number of extracellular and intracellular molecules, for example, actin, which are regulated in turn by protein phosphorylation. […] Migration is reduced in PTPN12 knock-out MEFs. By extension, a PTPN12 inhibitor should reduce cell migration in a Boyden chamber. Therefore, as a readout for PTPN12 activity, the following assay is designed to analyze cell migration in Boyden chambers. […]
For tumour cell lines, stock cells (ie. PC3 cells) are grown to 50-70% confluency in T175 flasks. […] Fluorescence of migrated cells is read in a Fluoroskan Ascent FL™ (or equivalent) with bottom reading at excitation/emission wavelength of 485/538 nm. Only those cells that have migrated through the pores of the FluoroBlok™ membrane will be read. […]
Data is expressed as fluorescence unit (FU) from the sum of middle 25 areas per 24-well or as percentage of migration inhibition by following formula: % of invasion inhibition=100−FU of compound treated cell invasion/FU of DMSO treated cell invasion times 100. […]

`Cc1ccc(C=C2SC(=S)N(CCC(=O)Nc3ccc(S(N)(=O)=O)cc3)C2=O)cc1` [3-[5-(4-methylbenzylidene)-4-oxo-2-thioxothiazolidin-3-yl]-N-(4-sulfamoylphenyl)-propionamide] gave an IC50 [1] of 1.5 µM, an inhibition at 50 µM [2] of 45% and an inhibition at 50 µM [3] of 35%. The IC50 [4] was 1.6 µM, the IC50 [5] was 3 µM and the inhibition at 25 µM [6] was 55%.
`Cc1ccc(C=C2SC(=S)N(CCC(=O)Nc3ccc(S(=O)(=O)Nc4nccs4)cc3)C2=O)cc1` [3-[5-(4-methylbenzylidene)-4-oxo-2-thioxothiazolidin-3-yl]-N-[4-(thiazol-2-ylsulfamoyl)-phenyl]-propionamide] showed an IC50 [1] of 1.1 µM, an inhibition at 50 µM [2] of 43% and an inhibition at 50 µM [3] of 47%. The IC50 [4] was 0.95 µM, the IC50 [5] was 1.5 µM and the inhibition at 25 µM [6] was 87%.
